US20040260272A1, “Method and system for intravesicular delivery of therapeutic agents” (priority 2002, published 2004)
Blank lines part the entries; values can stand above or below the compound they belong to.

Key:
[1] = In vitro release of Ciprofloxacin from cast hydrophilic polyurethane film in phosphate buffer; format: physicochemical; conditions: core loading 6.0 wt %, 37 C
Method: A cast film of polyurethane containing Ciprofloxacin was made by reacting hydrophilic polyurethane prepolymer (Urepol 1002A obtained from Envirochem) with distilled water. The reacting mixture was spread in a thin film over a glass petri dish. The film was cured overnight and dried to leave a thin film of polyurethane containing Ciprofloxacin. The resultant drug carrying film was further vacuum-dried. The drug loading was measured to be 0.06 gms per 1 gm of coated film, i.e. 6.0 wt %.
The drug carrying film was placed in phosphate buffer at 37 C and a pH of 7.4 and the Ciprofloxacin in vitro release was measured.

[2] = In vitro release of Thio-TEPA from polyurethane-coated polyurethane foam substrate in phosphate buffer; format: physicochemical; conditions: core loading 0.9 wt %, 37 C
Method: A reticulated TDI/polyether based foam (SIF grade obtained from Foamex) was used as a scaffold or substrate. The foam substrate was 4″×4″ (10.2 cm×10.2 cm) square sample with a thickness of ¼″ or 0.635 cm with a volume of 65.5 cm^3 and weighed 1.2 g, giving a density of 0.0183 gms/cc. 2.42 grams of hydrophilic polyurethane prepolymer (Urepol 1002A obtained from Envirochem) and 64 milligrams of Thio-TEPA was diluted in 6 ml of DMF. The foam was dipped into the solution mixture of polyurethane prepolymer, Thio-TEPA and DMF. The Thio-TEPA containing solution mixture of polyurethane prepolymer and DMF was then distributed and spread over the foam substrate. During the spreading and distribution, it was ensured that solution mixture contacted the foam substrate from all sides and coated both the surface and internal pores of the foam substrate.
The foam substrate with coated solution mixture was held overnight below 8° C. The coating was cured by the reaction of the ambient moisture with the available reactive isocyanate in the prepolymer. After the overnight curing, the foam substrate with coated solution mixture was vacuum-dried to remove residual solvents to leave a coating of polyurethane containing Thio-TEPA.
The final weight of the foam substrate and the drug loaded coating was 3.24 gms. Density of the coated foam substrate was 0.0495 gms/cc. The drug loading was 0.009 gms per 1 gm of coated foam substrate, i.e. 0.9 wt %. The drug entrapment efficiency was 50% calculated from a final measures drug loading of 0.9 wt % and a theoretical drug loading of 1.8 wt %. The weight of the drug in the final coated foam substrate was 0.029 gms or 29 mgs with the drug density on the coated foam substrate being 0.44 mgs per cc.
The coated foam substrate was placed in phosphate buffer at 37 C, and a pH of 7.4 and the Thio-TEPA in vitro release was measured.

[3] = Immobilization of collagenase in composite foam polymer system; conditions: composite foam (hydrophobic polyurethane scaffold with hydrophilic polyurethane coating)

Cumulative Release, % at Day 1 ([1]; pH 7.4, Day 1): 15.7%
Cumulative Release, % at Day 3 ([1]; pH 7.4, Day 3): 16.8%
Cumulative Release, % at Day 4 ([1]; pH 7.4, Day 4): 29.28%
Compound: O=C(O)c1cn(C2CC2)c2cc(N3CCNCC3)c(F)cc2c1=O [Ciprofloxacin]

Compound: S=P(N1CC1)(N1CC1)N1CC1 [Thio-Tepa, Thio-TEPA]
Cumulative Release, % at Day 1 ([2]; pH 7.4, Day 1): 11.9%
Cumulative Release, % at Day 3 ([2]; pH 7.4, Day 3): 43.7%
Cumulative Release, % at Day 6 ([2]; pH 7.4, Day 6): 66.6%

Compound: collagenase
enzymatic activity after immobilization within the polymer system [3]: retain enzymatic activity
